From PubChem BioAssay (NCI) come the findings set out here.

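These data come from cells grown in 96-well plates and exposed to compound for 48 hours at five concentrations. GI50 is the concentration that inhibits growth by half. Definition used: TGI = concentration required for complete inhibition of growth.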 Bounds are passed on as bounds.

For one test, the system named is HS 578T breast. The test is described as follows: growth of human tumour cells (NCI), 48 h.
Take `Cc1ccc(/C(O)=C/C(=O)C(=O)/C=C(\O)c2ccc(C)cc2C)c(C)c1`: the TGI stood at 5.15 µM.
The compound `O=C(NCCCCCCNCc1cccc2ccccc12)Nc1cccc2ccccc12` came in with a TGI of more than 100 µM.
The same measure, in the same setting: next, `Cc1ccc([C@H]2CC(=O)C[C@H](c3ccc(C)cc3)C23C(=O)c2ccccc2C3=O)cc1`: 58.7 µM; `O=c1c2ncn(COCCCl)c2n(-c2ccccc2)c(=S)n1-c1ccccc1`: more than 100 µM.
`O=C(O)c1ccc(S(=O)(=O)c2ccccc2[N+](=O)[O-])cc1` displayed a TGI of more than 10 µM.
The same measure, in the same setting: next, `COc1ccc(/C=N/N=C(\N)NO)c(O)c1`: more than 10 µM; `OCC1OC(n2cnc3c(Cl)nc(Nc4ccccc4)nc32)CC1O` (configuration not stated): 90.1 µM; `CC1(CF)SCc2nc3ccccc3n21` (configuration not stated): more than 100 µM.
On to `C[C@]12CCc3nc(Nc4ccccc4)sc3C1=CC[C@@H]1[C@@H]2CC[C@]2(C)/C(=N/NC(N)=S)CC[C@@H]12`, for which the GI50 was more than 100 µM and the TGI was more than 100 µM.
`O=C1NC(N/N=C/C(O)C(O)C(O)CO)=N/C1=C\c1ccco1` (configuration not stated) yielded a TGI of more than 100 µM.
`Cc1ccn2c(=O)cc(-c3ccccc3)nc2c1` returned a TGI of more than 100 µM.
The same measure, in the same setting: next, `CCn1nc2c3c(ncn3C(C)(C)O2)c1=O`: more than 100 µM.
The compound `CCCCCC(=O)NC(=S)Nc1nn[nH]n1` showed a TGI of more than 100 µM.
Same read-out and setting: to `CCc1ccc2oc(-c3cc(O)c(-c4nc5cc(CC)ccc5o4)cc3O)nc2c1` belongs more than 100 µM.
`Cc1cn(C2CC(n3cc(Cn4cc(Br)c(=O)[nH]c4=O)nn3)C(CO)O2)c(=O)[nH]c1=O` (configuration not stated) showed a TGI of more than 100 µM.

The next test has as its system TK-10 renal. The test is described as follows: growth of human tumour cells (NCI), 48 h.
`CCC1(C(=O)OC(C)(C)C)OC12C(C)CCCC2C` (configuration not stated) displayed a TGI of more than 100 µM.
As to `Cc1ccc(-c2cc(N)n(-c3nc4c(c(=O)n(C)c(=O)n4C)n3C)n2)cc1`, the TGI was more than 100 µM.
On the same count and under the same terms, to `O=C(Cc1ccccc1)NN1C(=O)/C(=C\c2cccc(O)c2)SC1=Nc1ccccc1` belongs more than 100 µM; to `CN(C)c1ccc(C2SCC(=O)N2NS(=O)(=O)c2cccc(C(=O)O)c2)cc1` (configuration not stated), more than 100 µM; to `O=C1c2ccccc2-c2nc(-c3cccc([N+](=O)[O-])c3)nnc21`, 39.5 µM.
Still for that read-out and setting: next, `CC(=O)N1N=C(c2ccc3ccccc3c2O)CC1C(=O)c1ccco1` (configuration not stated): more than 100 µM; `N#Cc1nc(-c2cccs2)oc1N`: more than 100 µM; `NC(=O)NNC(=O)c1nc[nH]c1[N+](=O)[O-]`: more than 100 µM.
Compound `O=c1c2c([N+](=O)[O-])cccc2nc2[nH]c3ccccc3n12` had a TGI of 51.6 µM.
As for `O=C(OCC1OC2OC(c3ccccc3)(n3ccc4c([N+](=O)[O-])ccnc43)OC2C1OC(=O)c1ccccc1)c1ccccc1` (configuration not stated), the TGI was more than 100 µM.
On the same count and under the same terms, to `Cc1ccc(/C(O)=C/C(=O)C(=O)/C=C(\O)c2ccc(C)cc2C)c(C)c1` belongs 3.45 µM; to `O=C(NCCCCCCNCc1cccc2ccccc12)Nc1cccc2ccccc12`, more than 100 µM.
The same measure, in the same setting: to `Cc1ccc([C@H]2CC(=O)C[C@H](c3ccc(C)cc3)C23C(=O)c2ccccc2C3=O)cc1` belongs more than 100 µM.
As to `O=c1c2ncn(COCCCl)c2n(-c2ccccc2)c(=S)n1-c1ccccc1`, the TGI is more than 100 µM.
Still for that read-out and setting: next, `O=C(O)c1ccc(S(=O)(=O)c2ccccc2[N+](=O)[O-])cc1`: more than 10 µM; `COc1ccc(/C=N/N=C(\N)NO)c(O)c1`: more than 10 µM.
On the same count and under the same terms, next, `OCC1OC(n2cnc3c(Cl)nc(Nc4ccccc4)nc32)CC1O` (configuration not stated): more than 100 µM; `CC1(CF)SCc2nc3ccccc3n21` (configuration not stated): more than 100 µM.
Take `C[C@]12CCc3nc(Nc4ccccc4)sc3C1=CC[C@@H]1[C@@H]2CC[C@]2(C)/C(=N/NC(N)=S)CC[C@@H]12`: the GI50 is 46.4 µM and the TGI is more than 100 µM.
`O=C1NC(N/N=C/C(O)C(O)C(O)CO)=N/C1=C\c1ccco1` (configuration not stated): the TGI is more than 100 µM.
`Cc1ccn2c(=O)cc(-c3ccccc3)nc2c1` registered a TGI of more than 100 µM.
`CCn1nc2c3c(ncn3C(C)(C)O2)c1=O` showed a TGI of more than 100 µM.
In turn, `CCCCCC(=O)NC(=S)Nc1nn[nH]n1` came in with a TGI of more than 100 µM.
In turn, `CCc1ccc2oc(-c3cc(O)c(-c4nc5cc(CC)ccc5o4)cc3O)nc2c1` yielded a TGI of more than 100 µM.
In turn, `Cc1cn(C2CC(n3cc(Cn4cc(Br)c(=O)[nH]c4=O)nn3)C(CO)O2)c(=O)[nH]c1=O` (configuration not stated) displayed a TGI of more than 100 µM.

The next test deals with HT29 colon. Put plainly: growth of human tumour cells (NCI), 48 h.
With `CCC1(C(=O)OC(C)(C)C)OC12C(C)CCCC2C` (configuration not stated), the TGI is more than 100 µM.
Still for that read-out and setting: to `Cc1ccc(-c2cc(N)n(-c3nc4c(c(=O)n(C)c(=O)n4C)n3C)n2)cc1` belongs more than 100 µM; to `O=C(Cc1ccccc1)NN1C(=O)/C(=C\c2cccc(O)c2)SC1=Nc1ccccc1`, more than 100 µM; to `CN(C)c1ccc(C2SCC(=O)N2NS(=O)(=O)c2cccc(C(=O)O)c2)cc1` (configuration not stated), more than 100 µM.
The same measure, in the same setting: to `CC1CCOc2ccc(cc2)C=Nc2ccc(cc2)CCc2ccc(cc2)N=Cc2ccc(cc2)OCC1` (configuration not stated) belongs more than 100 µM; to `O=C1c2ccccc2-c2nc(-c3cccc([N+](=O)[O-])c3)nnc21`, 5.43 µM.
Still for that read-out and setting: to `CC(=O)N1N=C(c2ccc3ccccc3c2O)CC1C(=O)c1ccco1` (configuration not stated) belongs more than 100 µM; to `N#Cc1nc(-c2cccs2)oc1N`, more than 100 µM; to `NC(=O)NNC(=O)c1nc[nH]c1[N+](=O)[O-]`, more than 100 µM.
With `O=c1c2c([N+](=O)[O-])cccc2nc2[nH]c3ccccc3n12`, the TGI was more than 75 µM.
`N#C/C(=C\n1ccc(=O)[nH]c1=S)C(N)=O` showed a TGI of more than 100 µM.
Still for that read-out and setting: next, `O=C(OCC1OC2OC(c3ccccc3)(n3ccc4c([N+](=O)[O-])ccnc43)OC2C1OC(=O)c1ccccc1)c1ccccc1` (configuration not stated): more than 100 µM; `Cc1ccc(/C(O)=C/C(=O)C(=O)/C=C(\O)c2ccc(C)cc2C)c(C)c1`: more than 20.8 µM; `O=C(NCCCCCCNCc1cccc2ccccc12)Nc1cccc2ccccc12`: more than 100 µM.
Same read-out and setting: next, `Cc1ccc([C@H]2CC(=O)C[C@H](c3ccc(C)cc3)C23C(=O)c2ccccc2C3=O)cc1`: more than 100 µM.
Still for that read-out and setting: to `O=c1c2ncn(COCCCl)c2n(-c2ccccc2)c(=S)n1-c1ccccc1` belongs more than 100 µM; to `O=C(O)c1ccc(S(=O)(=O)c2ccccc2[N+](=O)[O-])cc1`, more than 10 µM; to `COc1ccc(/C=N/N=C(\N)NO)c(O)c1`, more than 10 µM.
On to `OCC1OC(n2cnc3c(Cl)nc(Nc4ccccc4)nc32)CC1O` (configuration not stated), for which the TGI was more than 100 µM.
As for `CC1(CF)SCc2nc3ccccc3n21` (configuration not stated), the TGI was more than 100 µM.
For the compound `C[C@]12CCc3nc(Nc4ccccc4)sc3C1=CC[C@@H]1[C@@H]2CC[C@]2(C)/C(=N/NC(N)=S)CC[C@@H]12`, the GI50 is 2.23 µM and the TGI was more than 100 µM.
The compound `O=C1NC(N/N=C/C(O)C(O)C(O)CO)=N/C1=C\c1ccco1` (configuration not stated) displayed a TGI of more than 100 µM.
The same measure, in the same setting: next, `Cc1ccn2c(=O)cc(-c3ccccc3)nc2c1`: more than 100 µM; `CCn1nc2c3c(ncn3C(C)(C)O2)c1=O`: more than 100 µM.
